The subject of this assay is CTNNB1. Briefly: In vitro DMD assay: mRNA silencing enhancement by peptide conjugates after siRNA-IV treatment. To be noted: primary mouse hepatocytes, siRNA-IV 125 nM baseline. Format: cell-based. The protocol:
Cryopreserved primary Mouse hepatocytes (Bioreclamation, LLC) were placed into Collagen Type I coated 96-well plates at 25,000 cells per well in serum-containing InVitroGRO CP media (Bioreclamation, LLC) and allowed 5 hours to attach. Media was replaced with InVitroGRO HI media and cells were treated with siRNA-IV at 125 nM [siRNA] for 1 hour. Media was replaced with InVitroGRO HI media and cells were treated for approximately 16 hours with experimental Peptide conjugates at various concentrations to establish a dose-response curve. Peptide conjugates were washed out after 16 hours with InVitroGRO HI media and cells allowed to incubate for an additional 24 hours. Cells were then lysed and mRNA expression of the siRNA target was measured by RT-qPCR (Applied Biosystems Taqman reagents). mRNA silencing activity of each Peptide conjugate was expressed as an enhancement above the baseline activity of 125 nM siRNA-IV alone with respect to the untreated cells and all siRNA target Ct values were normalized to PPIB mRNA for each well (dddCt) and summarized.
The structure of TGN-S-S-peptide is shown below and the activity data is listed in Table 5 (siRNA-IV concentration was kept at […]).

We go through 16 substances from patent publication US10239957B2, “Peptide containing conjugates for dual molecular delivery of oligonucleotides” (Merck Sharp & Dohme Corp., priority 2013, dated 2019).

Where no end group is shown, it is not given here. [ ]: non-standard residue; d: D form. TGN = not defined here

In the case of “TGN-S-S-SEQ ID NO: 1795 (D) ([dC]G[dF][dF]G[dE][dI][dE][dE][dL][dI][dE][dE]G[dL][dE][dN][dL][dI][dD][dW]G[dN]G; not fully specified (residue 1); also: TGN conjugated via disulfide at Cys1; listed as Homo sapiens)”, the “In vitro dddCt (vs. baseline SCE dose)” value by setting is: (Targeted peptide dose 8 nM) −0.1; (Targeted peptide dose 40 nM) −0.33; (Targeted peptide dose 200 nM) −0.71; (Targeted peptide dose 1000 nM) 0.94; (Targeted peptide dose 5000 nM) −0.71.

As to “TGN-S-S-SEQ ID NO: 1740(D) (G[dL][dF][dE][dA][dI][dE]G[dF][dI][dE][dN]G[dW][dE]G[dL][dA][dE][dL][dA][dE][dA][dL][dE][dA][dL][dA][dA]GG[dS][dC]; not fully specified (residue 33); also: disulfide to TGN peptide via Cys33; listed as Homo sapiens)”, the “In vitro dddCt (vs. baseline SCE dose)” value was −0.19 (Targeted peptide dose 8 nM); −0.46 (Targeted peptide dose 40 nM); −1.29 (Targeted peptide dose 200 nM); −2.3 (Targeted peptide dose 1000 nM); −2.98 (Targeted peptide dose 5000 nM).

For “TGN-S-S-SEQ ID NO: 1781 (D) ([dC][dE][dL][dF]G[dE][dI][dE][dE][dL][dI][dE][dE]G[dL][dE][dN][dL][dI][dD][dW]G[dN]G; not fully specified (residue 1); also: TGN conjugated via disulfide at Cys1; listed as Homo sapiens)”, the “In vitro dddCt (vs. baseline SCE dose)” value (Targeted peptide dose 8 nM) was −0.01; the “In vitro dddCt (vs. baseline SCE dose)” value (Targeted peptide dose 40 nM) is recorded as −0.02; the “In vitro dddCt (vs. baseline SCE dose)” value (Targeted peptide dose 200 nM) was 0.03; the “In vitro dddCt (vs. baseline SCE dose)” value (Targeted peptide dose 1000 nM) is listed as −0.01; the “In vitro dddCt (vs. baseline SCE dose)” value (Targeted peptide dose 5000 nM) worked out at 0.01.

As to “TGN-S-S-Seq-ID-55 (L) (C(TGN)GLFHALLHLLHSLWHLLLHAWYGYGRKKRRQRR; reading uncertain; also: disulfide-linked to TGN peptide via Cys; listed as Homo sapiens)”, the “In vitro dddCt (vs. baseline SCE dose)” value is, setting by setting: (Targeted peptide dose 8 nM) 0.11; (Targeted peptide dose 40 nM) 0.08; (Targeted peptide dose 200 nM) 0.12; (Targeted peptide dose 1000 nM) 0.05; (Targeted peptide dose 5000 nM) −0.01.

As for “TGN-S-S-SEQ ID NO: 1778 (D) ([dC]G[dL][dF][dA][dE][dI][dE][dE][dL][dI][dE][dE]G[dL][dE][dN][dL][dI][dD][dW]G[dN]G; not fully specified (residue 1); also: TGN conjugated via disulfide at Cys1; listed as Homo sapiens)”, the “In vitro dddCt (vs. baseline SCE dose)” value (Targeted peptide dose 8 nM) is given as −0.38, the “In vitro dddCt (vs. baseline SCE dose)” value (Targeted peptide dose 40 nM) is reported as −0.57, the “In vitro dddCt (vs. baseline SCE dose)” value (Targeted peptide dose 200 nM) was −0.91 and the “In vitro dddCt (vs. baseline SCE dose)” value (Targeted peptide dose 1000 nM) is −1.54.

Take “TGN-S-S-SEQ ID NO: 1794 (D) ([dC]G[dL][dF]G[dA][dI][dE][dE][dL][dI][dE][dE]G[dL][dE][dN][dL][dI][dD][dW]G[dN]G; not fully specified (residue 1); also: TGN conjugated via disulfide at Cys1; listed as Homo sapiens)”: the “In vitro dddCt (vs. baseline SCE dose)” value reads like this: (Targeted peptide dose 8 nM) −0.09; (Targeted peptide dose 40 nM) −0.8; (Targeted peptide dose 200 nM) −2.22; (Targeted peptide dose 1000 nM) −2.71; (Targeted peptide dose 5000 nM) −2.61.

In the case of “TGN-S-S-SEQ ID NO: 1748 (D) ([dC]G[dL][dF]G[dE][dI][dE][dE][dL][dI][dE][dE][dA][dL][dE][dN][dL][dI][dD][dW]G[dN]G; not fully specified (residue 1); also: disulfide to TGN peptide via Cys1; listed as Homo sapiens)”, the “In vitro dddCt (vs. baseline SCE dose)” value is reported as −0.2 (Targeted peptide dose 8 nM); −0.5 (Targeted peptide dose 40 nM); −1.38 (Targeted peptide dose 200 nM); −1.92 (Targeted peptide dose 1000 nM); −2.01 (Targeted peptide dose 5000 nM).

On to “TGN-S-S-Seq-ID-58 (D) (CRRQRRKKRGYGYWGDILGEWGNEIFGEIAEFLG; not fully specified; TGN disulfide conjugate; D-amino acids; listed as Homo sapiens)”, for which the “In vitro dddCt (vs. baseline SCE dose)” value is on record as −0.05 (Targeted peptide dose 8 nM); −0.03 (Targeted peptide dose 40 nM); −0.25 (Targeted peptide dose 200 nM); −0.26 (Targeted peptide dose 1000 nM); −0.3 (Targeted peptide dose 5000 nM).

In the case of “TGN-S-S-SEQ ID NO: 1777 (D) ([dC]G[dN][dF]G[dE][dI][dE][dE][dL][dI][dE][dE]G[dL][dE][dN][dL][dI][dD][dW]G[dN]G; not fully specified (residue 1); also: TGN conjugated via disulfide at Cys1; listed as Homo sapiens)”, the “In vitro dddCt (vs. baseline SCE dose)” value is, setting by setting: (Targeted peptide dose 8 nM) −0.18; (Targeted peptide dose 40 nM) 0.28; (Targeted peptide dose 200 nM) −0.13; (Targeted peptide dose 1000 nM) −0.13; (Targeted peptide dose 5000 nM) 0.09.

Consider “TGN-S-S-SEQ ID NO: 1761 (D) ([dC]G[dL][dF]G[dE][dI][dE][dE][dL][dI][dE][dE]G[dL][dE][dN][dW][dI][dD][dW]G[dN]G; not fully specified (residue 1); also: disulfide to TGN peptide via Cys1; listed as Homo sapiens)”, for which the “In vitro dddCt (vs. baseline SCE dose)” value runs as follows: (Targeted peptide dose 8 nM) 0.08; (Targeted peptide dose 40 nM) −0.25; (Targeted peptide dose 200 nM) −0.22; (Targeted peptide dose 1000 nM) −0.07; (Targeted peptide dose 5000 nM) −0.11.

“TGN-S-S-SEQ ID NO: 1782 (D) ([dC][dA][dL][dF]G[dE][dI][dE][dE][dL][dI][dE][dE]G[dL][dE][dN][dL][dI][dD][dW]G[dN]G; not fully specified (residue 1); also: TGN conjugated via disulfide at Cys1; listed as Homo sapiens)”: the “In vitro dddCt (vs. baseline SCE dose)” value is reported as −0.14 (Targeted peptide dose 8 nM), 0.43 (Targeted peptide dose 40 nM), −0.17 (Targeted peptide dose 200 nM) and −0.21 (Targeted peptide dose 1000 nM).

Regarding “TGN-S-S-SEQ ID NO: 1753 (D) ([dC]G[dL][dF]G[dE][dI][dE][dE][dF][dI][dE][dE]G[dL][dE][dN][dL][dI][dD][dW]G[dN]G; not fully specified (residue 1); also: disulfide to TGN peptide via Cys1; listed as Homo sapiens)”, the “In vitro dddCt (vs. baseline SCE dose)” value by setting is: (Targeted peptide dose 8 nM) 0.15; (Targeted peptide dose 40 nM) 0.05; (Targeted peptide dose 200 nM) −0.2; (Targeted peptide dose 1000 nM) −0.18; (Targeted peptide dose 5000 nM) −0.16.

“TGN-S-S-Seq-ID-56 (L) (C(TGN)GLFHALLHLLHSLWHLLLHAWYGYGHKKHHQHR; reading uncertain; also: disulfide-linked to TGN peptide via Cys; listed as Homo sapiens)”: the “In vitro dddCt (vs. baseline SCE dose)” value reads like this: (Targeted peptide dose 8 nM) 0.02; (Targeted peptide dose 40 nM) 0.05; (Targeted peptide dose 200 nM) −0.12; (Targeted peptide dose 1000 nM) −0.08; (Targeted peptide dose 5000 nM) −0.58.

Consider “TGN-S-S-SSEQ ID NO: 1799(D) ([dC]G[dL][dF]G[dE][dI][dE][dE][dL][dI][dE][dE]G[dL][dE][dN][dL][dL][dD][dW]G[dN]G; not fully specified (residue 1); also: TGN conjugated via disulfide at Cys1; listed as Homo sapiens)”, for which the “In vitro dddCt (vs. baseline SCE dose)” value by setting is: (Targeted peptide dose 8 nM) 0.03; (Targeted peptide dose 40 nM) −0.45; (Targeted peptide dose 200 nM) −1.63; (Targeted peptide dose 1000 nM) −2.13; (Targeted peptide dose 5000 nM) −2.22.

Regarding “TGN-S-S-SEQ ID NO: 1779(D) ([dC]G[dL][dF][dE][dE][dI][dE][dE][dL][dI][dE][dE]G[dL][dE][dN][dL][dI][dD][dW]G[dN]G; not fully specified (residue 1); also: TGN conjugated via disulfide at Cys1; listed as Homo sapiens)”, the “In vitro dddCt (vs. baseline SCE dose)” value (Targeted peptide dose 8 nM) is reported as −0.18; the “In vitro dddCt (vs. baseline SCE dose)” value (Targeted peptide dose 40 nM) is listed as −0.24; the “In vitro dddCt (vs. baseline SCE dose)” value (Targeted peptide dose 200 nM) is reported as −1.29; the “In vitro dddCt (vs. baseline SCE dose)” value (Targeted peptide dose 1000 nM) is given as −1.52; the “In vitro dddCt (vs. baseline SCE dose)” value (Targeted peptide dose 5000 nM) is given as −1.51.

In the case of “TGN-S-S-Seq-ID-111 (D) ([dC][dF][dF]G[dA][dI][dW][dE][dF][dI][dK][dS][dI][dL][dE]G[dL][dI][dD][dW][dW][dY]G[dY]G[dH][dK][dK][dH][dH][dQ][dH][dR]; not fully specified (residue 1); also: TGN conjugated via disulfide at Cys1; listed as Homo sapiens)”, under “Targeted peptide dose 5000 nM”, the “In vitro dddCt (vs. baseline SCE dose)” value is −1.4.
